Source: PubChem BioAssay (NCI)
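Abbreviation: GI50, concentration required for 50% inhibition of growth. TGI marks complete inhibition of growth.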

Key:
Assay in all cases: DTP human tumour cell line panel, 384-well format
[1] = test system: SK-MEL-28 melanoma
[2] = test system: A498 renal
[3] = test system: SF-539 CNS
[4] = test system: HT29 colon
[5] = test system: HS 578T breast
[6] = test system: NCI-H460 NSCLC
[7] = test system: MCF7 breast
[8] = test system: U251 glioblastoma
[9] = test system: IGROV1 ovarian
[10] = test system: BT-549 breast
[11] = test system: HCT-15 colon
[12] = test system: RPMI-8226 leukemia
[13] = test system: PC-3 prostate
[14] = test system: OVCAR-8 ovarian
[15] = test system: NCI-H522 lung
[16] = test system: SK-OV-3 ovarian
[17] = test system: EKVX NSCLC
[18] = test system: NCI-H226 lung
[19] = test system: HCT-116 colon
[20] = test system: OVCAR-3 ovarian
[21] = test system: HOP-62 NSCLC
[22] = test system: T-47D breast
[23] = test system: SK-MEL-5 melanoma
[24] = test system: SR leukemia
[25] = test system: CAKI-1 renal
[26] = test system: HL-60(TB) leukemia
[27] = test system: SF-268 CNS
[28] = test system: OVCAR-5 ovarian
[29] = test system: MALME-3M melanoma
[30] = test system: SF-295 CNS
[31] = test system: ACHN renal
[32] = test system: SNB-75 CNS
[33] = test system: COLO 205 colon
[34] = test system: MDA-MB-468 breast
[35] = test system: RXF 393 renal
[36] = test system: LOX IMVI melanoma
[37] = test system: A549 NSCLC
[38] = test system: HOP-92 NSCLC
[39] = test system: DU-145 prostate
[40] = test system: MDA-MB-231 breast
[41] = test system: MOLT-4 leukemia
[42] = test system: UACC-257 melanoma
[43] = test system: TK-10 renal
[44] = test system: SN12C renal
[45] = test system: HCC-2998 colon
[46] = test system: M14 melanoma
[47] = test system: NCI-H23 lung
[48] = test system: NCI/ADR-RES ovarian
[49] = test system: SNB-19 CNS
[50] = test system: KM12 colon
[51] = test system: OVCAR-4 ovarian
[52] = test system: NCI-H322M lung

## CNCCn1c(=O)c2cc(OC)c(OC)cc2c2cnc3cc4c(cc3c21)OCO4
[1]
  GI50: 28.8 nM
  TGI: 1830 nM
[2]
  GI50: < 10 nM
  TGI: 20.9 nM
[3]
  GI50: < 10 nM
  TGI: 12.3 nM
[4]
  GI50: < 10 nM
  TGI: 20.5 nM
[5]
  GI50: 33.5 nM
  TGI: 1810 nM
[6]
  GI50: < 10 nM
  TGI: < 10 nM
[7]
  GI50: < 10 nM
  TGI: 158 nM
[8]
  GI50: < 10 nM
  TGI: 12.3 nM
[9]
  GI50: 15.8 nM
  TGI: 66.7 nM
[10]
  GI50: < 10 nM
  TGI: 20.4 nM
[11]
  GI50: < 10 nM
  TGI: 25.8 nM
[12]
  GI50: < 10 nM
  TGI: < 10 nM
[13]
  GI50: 22.1 nM
  TGI: 1340 nM
[14]
  GI50: < 10 nM
  TGI: 33.8 nM
[15]
  GI50: < 10 nM
  TGI: 23.3 nM
[16]
  GI50: < 10 nM
  TGI: 17.7 nM
[17]
  GI50: 21.9 nM
  TGI: 51.6 nM
[18]
  GI50: 12.7 nM
  TGI: 756 nM
[19]
  GI50: < 10 nM
  TGI: 19.2 nM
[20]
  GI50: < 10 nM
  TGI: 14.1 nM
[21]
  GI50: < 10 nM
  TGI: < 10 nM
[22]
  GI50: < 10 nM
  TGI: 242 nM
[23]
  GI50: < 10 nM
  TGI: 14.8 nM
[24]
  GI50: < 10 nM
  TGI: < 10 nM
[25]
  GI50: < 10 nM
  TGI: 1490 nM
[26]
  GI50: < 10 nM
  TGI: < 10 nM
[27]
  GI50: < 10 nM
  TGI: 17.2 nM
[28]
  GI50: 10.6 nM
  TGI: 29.1 nM
[29]
  GI50: 25.5 nM
  TGI: 1810 nM
[30]
  GI50: < 10 nM
  TGI: < 10 nM
[31]
  GI50: < 10 nM
  TGI: < 10 nM
[32]
  GI50: < 10 nM
  TGI: 23.3 nM
[33]
  GI50: < 10 nM
  TGI: 1330 nM
[34]
  GI50: < 10 nM
  TGI: < 10 nM
[35]
  GI50: 13.7 nM
  TGI: 43.1 nM
[36]
  GI50: < 10 nM
  TGI: 12 nM
[37]
  GI50: < 10 nM
  TGI: 1080 nM
[38]
  GI50: 14.1 nM
  TGI: 1330 nM
[39]
  GI50: < 10 nM
  TGI: < 10 nM
[40]
  GI50: 35.8 nM
  TGI: 139 nM
[41]
  GI50: < 10 nM
  TGI: < 10 nM
[42]
  GI50: 22.8 nM
  TGI: 1310 nM
[43]
  GI50: 13.8 nM
  TGI: 58.4 nM
[44]
  GI50: < 10 nM
  TGI: < 10 nM
[45]
  GI50: 12.4 nM
  TGI: 32.4 nM
[46]
  GI50: < 10 nM
  TGI: < 10 nM
[47]
  GI50: < 10 nM
  TGI: 16.2 nM
[48]
  GI50: < 10 nM
  TGI: 42.9 nM
[49]
  GI50: < 10 nM
  TGI: 14.1 nM
[50]
  GI50: 10.8 nM
  TGI: 43.2 nM
[51]
  GI50: 21.7 nM
  TGI: 42 nM
[52]
  GI50: 15.6 nM
  TGI: 41.1 nM
